Measured values from PMC9145754, “Novel Soloxolone Amides as Potent Anti-Glioblastoma Candidates: Design, Synthesis, In Silico Analysis and Biological Activities In Vitro and In Vivo” (Pharmaceuticals, 2022).

How the values were obtained:
[1] = tested on: brain tumor cells; test: MTT cytotoxicity, values summarised over brain tumor cells; type: cell-based; conditions: range over U87, U118, KELLY, Neuro2a; read-out: IC50 against brain malignant cells
Protocol: To evaluate the antitumor activity of the synthesized soloxolone amides in brain tumor cells, the cytotoxicity of compounds 4–12, predicted as BBB-permeable (Figure 3), was further analyzed in human glioblastoma U87 and U118 cells, as well as human neuroblastoma KELLY and murine neuroblastoma Neuro2a cells.
The cells in the exponential growth phase were seeded in quadruplicate in 96-well plates at a density of 1 × 10^4 cells/well for HeLa, U87, U118, KELLY and Neuro2a cells; 1.5 × 10^4 cells/well for HuTu-80 cells; 2 × 10^4 cells/well for B16 cells; and 7 × 10^3 cells/well for hFF3 fibroblasts. Cells were incubated under standard conditions overnight followed by their treatment with the investigated compounds (1–20 µM) for 24 h. Then, 10 µL of MTT solution was added to the cells to a final concentration of 0.5 mg/mL and plates were placed under standard conditions for 3 h followed by an aspiration of MTT-containing medium and a dissolution of formazan crystals with 100 µL of DMSO. The absorbance of each well was read at test and reference wavelengths of 570 and 620 nm, respectively, on a Multiscan RC plate reader (Thermo LabSystems, Helsinki, Finland).

[2] = Brain accumulation of 12 by HPLC–MS/MS; type: in vivo, Balb/C nude mice; conditions: seven injections
Protocol: (seven injections were performed in total) and brain tissue was collected 48 h after the last injection of 12 followed by a high-performance liquid chromatography–tandem mass spectrometry (HPLC–MS/MS) analysis of the obtained samples (Figure 3D). This treatment regimen was chosen due to its common usage in the evaluation of antitumor activity of various low-molecular weight compounds in xenograft murine models. […] Before the HPLC–MS/MS analysis, chromatographic conditions and mass spectrometer parameters for detecting both semisynthetic triterpenoid 12 and the internal standard in the multiple reaction monitoring (MRM) mode were optimized. […]
To estimate the content of 12 in mouse brain tissue, a set of calibrators was prepared followed by their preparation protocol. The obtained samples were analyzed using the developed HPLC–MS/MS method and a calibration curve was built over the range of concentrations of 10–1000 ng/g. […] The validation of the method for quantification of 12 in mouse brain tissue and investigation of its pharmacokinetics will be the objectives of our next study. […]
To prepare calibrators, mouse brain tissue samples taken from three healthy untreated animals were pooled and homogenized as described above. […] The obtained supernatants were transferred into vial inserts and analyzed. To quantify 12 in experimental animal brain tissue, a sample weighing c.a. […]

[3] = tested on: U87 cells; test: ROS production, DCFDA; type: cell-based, human; conditions: U87, 12 at 4 µM, 24 h
Protocol: To check the ability of 12 to influence ROS production, U87 cells treated with 12 (4 µM) for 24 h were stained with dichlorodihydrofluorescein diacetate (DCFDA) and analyzed by flow cytometry. […] Since ROS play an important role in the regulation of cell death, we further examined whether ROS production mediated the cytotoxicity of 12 with respect to glioblastoma cells.
Intracellular ROS levels in glioblastoma cells were measured using a DCFDA/H2DCFDA-Cellular ROS Assay Kit (Abcam, Cambridge, UK) according to the manufacturer’s instructions. Briefly, U87 cells were collected by trypsinization and stained with DCFDA at 20 μM for 30 min under standard conditions and seeded in 6-well plates at 2.8 × 10^5 cells/well. Next, the cells were treated with 12 at 4 µM for 24 h, followed by their harvesting and flow cytometry analysis. In total, 10,000 events were recorded for each sample.

CC1(C)C(=O)C(C#N)=C[C@]2(C)C3=CC(=O)[C@@H]4[C@@H]5C[C@@](C)(C(=O)NCCc6c[nH]c7ccccc67)CC[C@]5(C)CC[C@@]4(C)[C@]3(C)CC[C@@H]12 [compound 12]
IC50 [1]: 1600 to 1900 nM | concentration of 12 in brain tissue of tumor-bearing mice ([2]; U87 tumor-bearing nude mice, 20 mg/kg i.p.): 118 ng/g | concentration of 12 in brain tissue ([2]; nude mice, 50 mg/kg i.p., thrice a week, 48 h after last injection): 490 ng/g | increase of ROS generation compared to the control [3]: 1.9 fold
